Laboratory results from US7271239B2, “D-isomers of antimicrobial peptide” (The Research Foundation of State University of New York, priority 2004, dated 2007).
Read-outs that look alike come from different tables or passages of the source.

Assays:
HOK-16B cells = assay: MTS cell viability assay; assay type: cell-based, human
Protocol: FIG. 6. Effect of peptides on viability of (A) HOK-16B cells and (B) KB cells. The toxic effect of the compounds on the cells was determined by calorimetric assay using a CellTiter 96 AQueous One Solution cell proliferation assay (MTS) kit, as described in the text. Briefly, the cells were grown to about 80% confluence, harvested, washed, resuspended in KGM, and dispensed into a 96-well microtiter plate. They were then exposed to different concentrations of peptides or amphotericin B at 37° C. and 5% CO2 for 1.5 h. MTS agent was then added to each well, and the cells were further incubated for 4 h. Absorbance at 490 nm was then measured using a microplate reader. MTS reduction is an indication of cell viability. The viability is expressed as relative absorbance (percentage of no-agent control). Data represent the average and standard deviation of results from two independent experiments.
Cell culture. The HOK-16B cell line (originated from primary normal human keratinocytes) was kindly provided by No-Hee Park, UCLA School of Dentistry. The KB cell line was obtained from the American Type Culture Collection (CLL-17). […]
MTS cell viability assay. The toxic effect of the compounds on the cells was determined by calorimetric assay using a CellTiter 96 AQueous One Solution cell proliferation assay (MTS) kit (Promega, Wis.). […] Absorbance at 490 nm was then measured using a microplate reader. […]

C. albicans strain DIS = assay type: in vivo, mice ICR strain; conditions: for Log10 cfu/ml (Mean + S.D.), Initial infection: before treatment (baseline)
Protocol: A previously described protocol was adopted (14). Mice were immunosuppressed with two subcutaneous injections of prednisolone at a dose of 100 mg/kg body weight 1 day prior to and 3 days after the infection with C. albicans. Tetracycline hydrochloride in drinking water at a concentration of 0.83 mg/ml was given to mice beginning 1 day before infection. Mice were anesthetized by intramuscular injection with 60 μl of 2 mg/ml chlorpromazine chloride, using a dose of 10 mg/kg body weight of mice. While under anesthesia, a small cotton ball soaked in 0.1 ml aliquot of C. albicans cell suspension (2.5×10^6 cells) was used to swab the entire oral cavity of the anesthetized mice.
Visual evaluation was done by carefully extending the tongue of randomly picked mice using blunt-end forceps, while the mice were under isoflurane sedation. Presence of thick, white curd-like patches indicated candidal infection. At day 3 post-infection, all animals were examined for evidence oral candidal infection by microbiological evaluation. The entire oral cavity of anesthetized mice was swabbed using a sterile calcium alginate disposable swab (Fisher Scientific), dampened with sterile PBS. Cells were then released from the swab into 1 ml PBS. Serial 10-fold dilutions were plated on SDA plates supplemented with streptomycin (30 μg/ml). Plates were incubated for 24 h at 37° C. and yeast cell count expressed as log10 of cfu/ml.
Tongues from sacrificed animals were used for histological studies. They were fixed in 10% formalin and embedded in paraffin. Serial five-μm sections were cut from the paraffin block and stained with periodic acid-Schiff (PAS) reagent for detection of C. albicans.
Mice were randomly divided into various treatment groups with 8 mice per group. Antifungal agents were employed on an equimolar basis, and included amphotericin B (1.75%), clotrimazole (0.66%), MUC7 12-mer (RKSYKCLHKRCR—SEQ ID NO:1) (L; 3%), MUC7 12-mer (D; 3%), MUC7 12-mer (D; 3%) containing Na2EDTA (1 mM), MUC7 12-mer (L; 3%) containing protease inhibitor cocktail (PIC) (1%), and Hsn5 12-mer (AKRHHGYKRKFH—SEQ ID NO:2) (3%). They were all emulsified in Pluronic F127, (20% lipoil), a polymer of polyoxyethylene and polyoxypropylene (non-ionic surfactant). Animals were anesthetized using isoflurane; while sedated, about 30 to 40 μl of the antifungal emulsion was applied on the tongue and spread throughout oral cavity. The treated mice were under sedation for additional 5 min under isoflurane. Animals were not given access to food and water for 1 h following the application.
Fungal burden was re-evaluated quantitatively after 3 and 6 days of treatment, using the same technique as the one used for initial evaluation. Randomly picked mice from each group was subjected to histopathological evaluation, after 6 days of treatment. Blood from randomly sacrificed mice from each treatment group was analyzed for any changes in the serum liver (AST, ALT, ALP etc.) and kidney enzymes (BUN, glucose, creatinine etc) levels.
Statistical analysis was performed using a significance level set at 0.05 (α) and a significant group size (n=8). Initial infection and antifungal treatment efficacy were determined using analysis of variance (ANOVA), expressed as log10 cfu, and Scheffe's multiple comparison test was used to determine the differences between various treatment groups.

[1] = Experimental study I, topical oral application

In the case of C[C@@H]1[C@H](O)[C@@H](C)/C=C/C=C/C=C/C=C/C=C/C=C/C=C/[C@H](O[C@@H]2O[C@H](C)[C@@H](O)[C@H](N)[C@@H]2O)C[C@@H]2O[C@](O)(C[C@@H](O)C[C@@H](O)[C@H](O)CC[C@@H](O)C[C@@H](O)CC(=O)O[C@H]1C)C[C@H](O)[C@H]2C(=O)O [Amphotericin B], the IC50 (HOK-16B cells) is reported as 100 µM, the “Log10 cfu/ml (Mean + S.D.), Initial infection” value (C. albicans strain DIS; Experimental study I, day 3 post-infection) is reported as 4.52 ± 0.15 Log10 cfu/ml and the “Log10 cfu/ml (Mean + S.D.), 3-days treatment” value (C. albicans strain DIS; [1]) is reported as 1.79 ± 1.16 Log10 cfu/ml. For the same compound, the “Log10 cfu/ml (Mean + S.D.), 6-days treatment” value (C. albicans strain DIS; [1]) was 0.75 ± 1.04 Log10 cfu/ml, the “Log10 cfu/ml (Mean + S.D.), 3-days treatment” value (C. albicans strain DIS; Experimental study II) was 1.23 ± 1.44 Log10 cfu/ml and the “Log10 cfu/ml (Mean + S.D.), Initial infection” value (C. albicans strain DIS; Experimental study II) was 4.26 ± 0.54 Log10 cfu/ml. The “histopathological finding in tongue sections (C. albicans, PAS staining)” value (C. albicans strain DIS; end of treatment) was “healthy tissue and absence of visible microorganisms”.
